Assay results from patent US20130184272A1, “DIABETES THERAPEUTIC AGENT” (TAKEDA PHARMACEUTICAL COMPANY LIMITED, priority 2010, published 2013).

Assays:
[1] = system: Mouse-derived myoblast line C2C12 cell; assay: Cell differentiation promoting activity in myoblast (creatine kinase activity); assay type: cell-based; conditions: Mus musculus, C2C12, 48 h; compound at 0.01 μM (**); 2 days; without compound = 100%; read-out: creatine kinase activating action (%)
Procedure: • (1) Mouse-derived myoblast line C2C12 cell (Dainippon Pharmaceutical Co., Ltd.) was subcultured in a high glucose Eagle's modified Dulbecco's medium (GIBCO) added with 10% calf fetal bovine serum (GIBCO), 100 unit/mL penicillin and 100 μg/mL streptomycin (hereinafter to be referred to as a growth medium), plated at 5000 cells/cm^2 and cultured at 37° C., under 5% CO2. • (2) When the cells reached subconfluence of not less than 90%, the medium was exchanged with high glucose Eagle's modified Dulbecco's medium (GIBCO) added with (i) 2% horse serum (GIBCO) and (ii) penicillin, streptomycin and a test compound (hereinafter to be referred to as a differentiation medium) and the cells were cultured for 2 days. To the control group was added DMSO solution instead of the test compound. • (3) The cells were washed with PBS, 0.5% NP-40 solution was added, and the cells were lysed by freeze-thawing. The cell extract was centrifuged and the creatine kinase activity in the supernatant was measured as an index of muscle differentiation. The creatine kinase activity was measured using CPKII Test Wako (Wako Pure Chemical Industries, Ltd.) according to the manual of the kit.
The numerical values in Table 1 show creatine kinase activity of the compound addition group when the creatine kinase activity without addition of the compound is 100%, and * means measurement with addition of the compound at 10 μM, ** at 0.01 μM, and others at 1 μM.

[2] = system: Female KKA^y mice; assay: Anti-diabetes action and dyslipidemia improving effect in KKA^y mouse; assay type: in vivo; conditions: mixed feed dose 0.01 %, 2 weeks; control group = 100
Procedure: Female KKA^y mice (12-week-old, CLEA Japan, Inc.) were bred while allowing free ingestion of both feed and water. The mice were bred for acclimation with powder CE-2 (CLEA Japan, Inc.) from 2 weeks before administration of the compound. The body weight and plasma markers were measured and, at 14 weeks of age, they were divided such that the measured values were uniform with those of the control group. The compound of Reference Example 1, 2, 7, 8, 9 or 22 was administered for 2 weeks in a mixed feed (0.01-0.0001%). On the last day, plasma levels of glucose, insulin, total cholesterol and neutral lipid were measured.

[3] = system: Male C57BL/6J mice on a high-fat diet; assay: Antiobesity, dyslipidemia and diabetes improving effect in mouse fed with high-fat diet; assay type: in vivo; parameters: plasma leptin (mg/dL): unit not given here; conditions: for epididymal fat mass / gastrocnemius muscle weight (g/100 g body weight) / hepatocyte weight / mesenteric fat mass: Day 38
Procedure: Male C57BL/6J mice (CLEA Japan, Inc.) were bred from 5-week-old on a high-fat diet (D12451, research diet) while allowing free ingestion of both feed and water to prepare obesity mice. The mice were bred for acclimation for 2 weeks from 21-week-old. The body weight and plasma markers were measured when 23-week-old, the mice were divided into 6 groups (6 per group) such that the values thereof were uniform, and Reference Example 1 (0.01-0.1 mg/kg) or Reference Example 7 (1-3 mg/kg) was orally administered for 5 weeks. After 14 and 28 days, plasma levels of total cholesterol, neutral lipid, glucose, insulin, leptin, adiponectin and glycated hemoglobin were measured. On the last day, the mice were autopsied, and weights of mesenteric fat, epididymal fat, liver and gastrocnemius muscle were measured. The data of Table 18 show mean±standard deviation at n=5-6 (n is the number of samples).

Which activity at 0.01 µM [1] does the source give for Cn1ncc2c1-c1c(Oc3cccnc3)sc(C(N)=O)c1CC2 [Ref. Ex. 7, 1-methyl-8-(pyridin-3-yloxy)-4,5-dihydro-1H-thieno[3,4-g]indazole-6-carboxamide] here?
The activity at 0.01 µM was 183%.

And the “plasma glucose (%)” value [2]?
The value was 40.3 ± 4.5%.

And the “plasma insulin (%)” value [2]?
The value was 2.9 ± 1.7%.

What about the “plasma neutral lipid (%)” value [2] of the same compound?
The value was 33.9 ± 8.6%.

And the “plasma total cholesterol (%)” value [2]?
Its value is 64.8 ± 12.0%.

And the “average amount of ingestion” value ([3]; 1 mg/kg oral)?
Its value is 3.6 ± 0.2 g/day.

And the “body weight (g) change” value ([3]; 1 mg/kg oral)?
Its value is 4.0 ± 1.5 g.

What about the “body weight” value ([3]; 1 mg/kg oral, Day 0) of the same compound?
The value was 41.2 ± 1.8 g.

What about the “glycated hemoglobin (%)” value ([3]; 1 mg/kg oral, Day 0) of the same compound?
The value was 4.4 ± 0.1%.

What about the “plasma adiponectin (μg/dL))” value ([3]; 1 mg/kg oral, Day 0) of the same compound?
The value was 18.3 ± 2.8 µg/dL.

And the “plasma glucose” value ([3]; 1 mg/kg oral, Day 0)?
Its value is 168.4 ± 29.1 mg/dL.

And the “plasma insulin” value ([3]; 1 mg/kg oral, Day 0)?
The value was 5.3 ± 3.5 ng/mL.

And the “plasma leptin (mg/dL)” value ([3]; 1 mg/kg oral, Day 0)?
Its value is 61.4 ± 18.1.

What about the “plasma neutral fats” value ([3]; 1 mg/kg oral, Day 0) of the same compound?
Its value is 69.8 ± 35.0 mg/dL.

What about the “plasma total cholesterol” value ([3]; 1 mg/kg oral, Day 0) of the same compound?
Its value is 227.2 ± 21.2 mg/dL.

And the “glycated hemoglobin (%)” value ([3]; 1 mg/kg oral, Day 14)?
The value was 4.2 ± 0.2%.

What about the “plasma adiponectin (μg/dL))” value ([3]; 1 mg/kg oral, Day 14) of the same compound?
The value was 14.9 ± 3.4 µg/dL.

What about the “plasma glucose” value ([3]; 1 mg/kg oral, Day 14) of the same compound?
The value was 157.5 ± 19.4 mg/dL.

What about the “plasma insulin” value ([3]; 1 mg/kg oral, Day 14) of the same compound?
The value was 7.8 ± 3.3 ng/mL.

What about the “plasma leptin (mg/dL)” value ([3]; 1 mg/kg oral, Day 14) of the same compound?
Its value is 86.9 ± 12.0.

And the “plasma neutral fats” value ([3]; 1 mg/kg oral, Day 14)?
Its value is 68.8 ± 16.0 mg/dL.

What about the “plasma total cholesterol” value ([3]; 1 mg/kg oral, Day 14) of the same compound?
The value was 213.8 ± 13.0 mg/dL.

And the “glycated hemoglobin (%)” value ([3]; 1 mg/kg oral, Day 28)?
The value was 4.0 ± 0.1%.

And the “plasma adiponectin (μg/dL))” value ([3]; 1 mg/kg oral, Day 28)?
Its value is 12.2 ± 2.3 µg/dL.

What about the “plasma glucose” value ([3]; 1 mg/kg oral, Day 28) of the same compound?
Its value is 149.7 ± 16.9 mg/dL.

And the “plasma insulin” value ([3]; 1 mg/kg oral, Day 28)?
The value was 12.3 ± 4.9 ng/mL.

And the “plasma leptin (mg/dL)” value ([3]; 1 mg/kg oral, Day 28)?
Its value is 96.1 ± 10.2.

What about the “plasma neutral fats” value ([3]; 1 mg/kg oral, Day 28) of the same compound?
Its value is 62.1 ± 26.1 mg/dL.

And the “plasma total cholesterol” value ([3]; 1 mg/kg oral, Day 28)?
The value was 216.8 ± 20.7 mg/dL.

And the “body weight” value ([3]; 1 mg/kg oral, Day 37)?
Its value is 45.6 ± 3.0 g.

And the “epididymal fat mass” value ([3]; 1 mg/kg oral)?
The value was 0.78 ± 0.11 g.

And the “gastrocnemius muscle weight (g/100 g body weight)” value ([3]; 1 mg/kg oral)?
Its value is 0.360 ± 0.014 g/100 g body weight.

And the “hepatocyte weight” value ([3]; 1 mg/kg oral)?
Its value is 1.85 ± 0.30 g.

And the “mesenteric fat mass” value ([3]; 1 mg/kg oral)?
The value was 0.95 ± 0.14 g.

What about the “average amount of ingestion” value ([3]; 3 mg/kg oral) of the same compound?
The value was 3.7 ± 0.2 g/day.

What about the “body weight (g) change” value ([3]; 3 mg/kg oral) of the same compound?
The value was 2.3 ± 2.3 g.

What about the “body weight” value ([3]; 3 mg/kg oral, Day 0) of the same compound?
Its value is 41.1 ± 1.7 g.

What about the “glycated hemoglobin (%)” value ([3]; 3 mg/kg oral, Day 0) of the same compound?
Its value is 4.6 ± 0.1%.

What about the “plasma adiponectin (μg/dL))” value ([3]; 3 mg/kg oral, Day 0) of the same compound?
Its value is 17.0 ± 2.9 µg/dL.

What about the “plasma glucose” value ([3]; 3 mg/kg oral, Day 0) of the same compound?
The value was 176.9 ± 30.1 mg/dL.

And the “plasma insulin” value ([3]; 3 mg/kg oral, Day 0)?
Its value is 5.1 ± 2.3 ng/mL.

And the “plasma leptin (mg/dL)” value ([3]; 3 mg/kg oral, Day 0)?
Its value is 62.3 ± 10.9.

And the “plasma neutral fats” value ([3]; 3 mg/kg oral, Day 0)?
The value was 71.6 ± 28.8 mg/dL.

And the “plasma total cholesterol” value ([3]; 3 mg/kg oral, Day 0)?
Its value is 231.9 ± 29.9 mg/dL.

And the “glycated hemoglobin (%)” value ([3]; 3 mg/kg oral, Day 14)?
Its value is 4.0 ± 0.3%.

And the “plasma adiponectin (μg/dL))” value ([3]; 3 mg/kg oral, Day 14)?
The value was 15.2 ± 3.0 µg/dL.

And the “plasma glucose” value ([3]; 3 mg/kg oral, Day 14)?
The value was 172.8 ± 32.3 mg/dL.

And the “plasma insulin” value ([3]; 3 mg/kg oral, Day 14)?
The value was 6.2 ± 3.0 ng/mL.

And the “plasma leptin (mg/dL)” value ([3]; 3 mg/kg oral, Day 14)?
Its value is 73.5 ± 12.6.

What about the “plasma neutral fats” value ([3]; 3 mg/kg oral, Day 14) of the same compound?
Its value is 47.0 ± 9.2 mg/dL.

What about the “plasma total cholesterol” value ([3]; 3 mg/kg oral, Day 14) of the same compound?
Its value is 192.8 ± 12.5 mg/dL.

What about the “glycated hemoglobin (%)” value ([3]; 3 mg/kg oral, Day 28) of the same compound?
The value was 4.0 ± 0.2%.

What about the “plasma adiponectin (μg/dL))” value ([3]; 3 mg/kg oral, Day 28) of the same compound?
Its value is 12.8 ± 0.8 µg/dL.

What about the “plasma glucose” value ([3]; 3 mg/kg oral, Day 28) of the same compound?
The value was 155.9 ± 12.7 mg/dL.

What about the “plasma insulin” value ([3]; 3 mg/kg oral, Day 28) of the same compound?
The value was 5.8 ± 1.4 ng/mL.

What about the “plasma leptin (mg/dL)” value ([3]; 3 mg/kg oral, Day 28) of the same compound?
The value was 77.3 ± 16.3.

What about the “plasma neutral fats” value ([3]; 3 mg/kg oral, Day 28) of the same compound?
Its value is 53.6 ± 35.6 mg/dL.

What about the “plasma total cholesterol” value ([3]; 3 mg/kg oral, Day 28) of the same compound?
Its value is 194.1 ± 18.4 mg/dL.

And the “body weight” value ([3]; 3 mg/kg oral, Day 37)?
The value was 44.0 ± 2.4 g.

And the “epididymal fat mass” value ([3]; 3 mg/kg oral)?
The value was 0.77 ± 0.15 g.

And the “gastrocnemius muscle weight (g/100 g body weight)” value ([3]; 3 mg/kg oral)?
Its value is 0.375 ± 0.020 g/100 g body weight.

And the “hepatocyte weight” value ([3]; 3 mg/kg oral)?
The value was 1.74 ± 0.30 g.

What about the “mesenteric fat mass” value ([3]; 3 mg/kg oral) of the same compound?
Its value is 0.77 ± 0.24 g.

And the “body weight (in words)” value ([3]; obese mouse model fed with a high-fat diet)?
Its value is “clear body weight decreasing action”.
